Structures can show the parent of a compound that is named as a salt. Where two headings read alike, the source gives them in different places.
Tests used:
[1] = pigs, cited from earlier work; for F (bioavailability): conventional oral administration
[2] = Tylosin tartrate pharmacokinetics, FOLA vs commercially available, 200 ppm in food; assay type: in vivo, commercial poultry; details: when included in FOLA system, food ad libitum, poultry of 1.9 kg
Source text: Note generation of concentrations quite higher than traditional system (Cmax, MRT and AUC), which makes suitable its PK/PD ratio when included in FOLA system.
For Tylosin in commercial poultry, very high concentrations are achieved when FOLA system is used and which remain with therapeutic effect along night as shown in charts of FIGS. 4a and 4b. Variables disclosed below are pharmacokinetically obtained for tylosin in FOLA and a commercially available reference preparation: […]

[3] = cited from earlier work
[4] = humans; cited from earlier work
[5] = Background bioavailability and elimination of drugs in pigs; details: associated to FOLA system, single dose in the morning with food
Source text: Serum concentrations are not reached by night and in breeding sows doses should be 3000 ppm as they only eat an average of 2 kg with a weight of 300 kg. This is obviously not performed as they would reject food. • Tylosin and tiamulin are often underdosed due to costs. […] FOLA system achieves that easily even better than if that would have been injected. • Provision of phosphomycin in food is not useful since its F is below 20% and is eliminated in a few hours. Associated to FOLA system the results allow a single dose in the morning with food reaching F close to 100% and during 24 hours.

[6] = Florphenicol pharmacokinetics, FOLA vs commercially available, 20 mg/kg, 3 days; assay type: in vivo, commercial poultry; details: along three days, 20 mg/kg in food, when included in FOLA system
Protocol: Note generation of concentrations higher than traditional system (Cmax, MRT and AUC), which makes suitable its PK/PD ratio when included in FOLA system.
Note a generation of concentrations lower than 3 μg/mL, making suitable its PK/PD ratio when included in FOLA system.
Tests in Commercial Poultry
Variables disclosed below are pharmacokinetically obtained for florphenicol in FOLA and a commercially available reference preparation administered during 3 days: […]

[7] = commercial poultry, conventional oral administration

For `CN[C@@H]1[C@H](O)[C@H](NC)[C@H]2O[C@@]3(O)C(=O)C[C@@H](C)O[C@H]3O[C@@H]2[C@H]1O` [Spectinomycin], the “F (bioavailability)” value [1] is listed as 7%.
In the case of `CC[C@H]1OC(=O)C[C@@H](O)[C@H](C)[C@@H](O[C@@H]2O[C@H](C)[C@@H](O[C@H]3C[C@@](C)(O)[C@@H](O)[C@H](C)O3)[C@H](N(C)C)[C@H]2O)[C@@H](CC=O)C[C@@H](C)C(=O)/C=C/C(C)=C/[C@@H]1CO[C@@H]1O[C@H](C)[C@@H](O)[C@@H](OC)[C@H]1OC` [tylosin tartrate], the “concentrations reached (FIG. 4b)” value [2] is reported as “exceeding 1.5 μg/mL”.
For `COc1cc(Cc2cnc(N)nc2N)cc(OC)c1OC` [TMP, trimethoprim], the T½β ([3]; birds) is given as 1 h, the T½β [4] is given as 10 h and the elimination half-life [1] is given as 1 h.
In the case of `CN(C)[C@@H]1C(O)=C(C(N)=O)C(=O)[C@@]2(O)C(O)=C3C(=O)c4c(O)ccc(Cl)c4[C@@](C)(O)[C@H]3C[C@@H]12` [chlortetracycline], the “F (bioavailability)” value [3, 7] is listed as 20%.
In the case of `C[C@@H]1O[C@@H]1P(=O)(O)O` [Phosphomycin], the “F (bioavailability)” value [5] is given as about 100%, the “time to removal from plasma and tissues” value ([3]; in water, usual doses 10-40 mg/kg/day) is given as 6 to 8 h and the “F (bioavailability)” value [1] is given as “below 20%”.
For `CS(=O)(=O)c1ccc([C@@H](O)[C@@H](CF)NC(=O)C(Cl)Cl)cc1` [Florphenicol], the “serum concentrations (FIG. 8b)” value [6] was “lower than 3 μg/mL”.
For `CN(C)[C@@H]1C(O)=C(C(N)=O)C(=O)[C@@]2(O)C(O)=C3C(=O)c4c(O)cccc4[C@@](C)(O)[C@H]3[C@H](O)[C@@H]12` [Oxytetracycline], the “F (bioavailability)” value [3, 7] is listed as 20% and the “F (bioavailability)” value ([3]; commercial poultry, conventional oral administration, listed as oxytetracycline base) is listed as “around 20%”.
In the case of `CCC[C@@H]1C[C@@H](C(=O)N[C@@H]([C@H]2O[C@H](SC)[C@H](O)[C@@H](O)[C@H]2O)[C@@H](C)O)N(C)C1` [Lincomycin], the life [1] is given as at least 20%.
In the case of `CC[C@H]1OC(=O)C[C@@H](O)[C@H](C)[C@@H](O[C@@H]2O[C@H](C)[C@@H](O[C@H]3C[C@@](C)(O)[C@@H](O)[C@H](C)O3)[C@H](N(C)C)[C@H]2O)[C@@H](CC=O)C[C@@H](C)C(=O)/C=C/C(C)=C/[C@@H]1CO[C@@H]1O[C@H](C)[C@@H](O)[C@@H](OC)[C@H]1OC` [Tylosin], the “F (bioavailability)” value [3, 7] is listed as under 40%.
In the case of `CC[C@H]1OC(=O)[C@H](C)[C@@H](O[C@H]2C[C@@](C)(OC)[C@@H](O)[C@H](C)O2)[C@H](C)[C@@H](O[C@@H]2O[C@H](C)C[C@H](N(C)C)[C@H]2O)[C@](C)(O)C[C@@H](C)C(=O)[C@H](C)[C@@H](O)[C@]1(C)O` [Erithromycin], the “F (bioavailability)” value ([3]; in vivo, po) is listed as 18%.

Reference: patent US20160279063A1, “COMPOSITION OF EXCIPIENTS AND PHARMACEUTICAL FORMS WITH SUSTAINED RELEASE AND INCREASED BIOAVAILABILITY OF ANTIBACTERIAL DRUGS, ANTICOCCIDIAL DRUGS AND OTHER DRUGS FOR COMMERCIAL POULTRY AND PIGS” (priority 2012, published 2016)
